Measured values published in patent US7452880B2, “Substituted pyrazolo [3,4-d] pyrimidines and methods of using the same” (priority 2004, dated 2008).

Assays:
p38 MAP kinase = target: T1, p38 MAP kinase (Homo sapiens, UniProt Q16539); test: p38 (MAP) kinase in vitro assay (transfer of γ-33P-phosphate from ATP to Myelin Basic Protein); format: biochemical; conditions: phosphorylated recombinant p38 MAP kinase, MBP substrate, γ-33P-ATP, 30° C.
T1 construct: made in house; host or cells: E. coli (co-expressed with SEK-1 and MEKK to obtain the phosphorylated form)
T1 sequence (Q16539 whole entry): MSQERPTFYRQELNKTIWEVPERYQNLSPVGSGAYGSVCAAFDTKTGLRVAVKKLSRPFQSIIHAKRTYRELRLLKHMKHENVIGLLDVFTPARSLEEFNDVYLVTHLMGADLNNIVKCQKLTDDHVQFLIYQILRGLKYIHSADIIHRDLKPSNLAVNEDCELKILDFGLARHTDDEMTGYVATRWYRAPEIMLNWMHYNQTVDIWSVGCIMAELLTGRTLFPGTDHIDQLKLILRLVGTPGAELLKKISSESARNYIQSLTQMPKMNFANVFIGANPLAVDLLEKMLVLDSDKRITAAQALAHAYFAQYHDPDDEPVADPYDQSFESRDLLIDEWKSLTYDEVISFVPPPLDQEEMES
Protocol: This example illustrates a p38 (MAP) kinase in vitro assay useful for evaluating the compounds of the invention.
The p38 MAP kinase inhibitory activity of compounds of this invention in vitro was determined by measuring the transfer of the γ-phosphate from γ-^33P-ATP by p-38 kinase to Myelin Basic Protein (MBP), using a minor modification of the method described in Ahn, et al., J. Biol. Chem. 266:4220-4227 (1991).
The phosphorylated form of the recombinant p38 MAP kinase was co-expressed with SEK-1 and MEKK in E. Coli (see, Khokhlatchev, et al., J. Biol. Chem. 272:11057-11062 (1997)) and then purified by affinity chromatography using a Nickel column.
The phosphorylated p38 MAP kinase was diluted in kinase buffer (20 mM 3-(N-morpholino)propanesulfonic acid, pH 7.2, 25 mM β-glycerol phosphate, 5 mM ethylene glycol-bis(beta-aminoethyl ether)-N,N,N′,N′-tetraacetic acid, 1 mM sodium ortho-vanadate, 1 mM dithiothreitol, 40 mM magnesium chloride). Test compound dissolved in DMSO or only DMSO (control) was added and the samples were incubated for 10 min at 30° C. The kinase reaction was initiated by the addition of a substrate cocktail containing MBP and γ-^33P-ATP. […] The phosphorylated MBP was then separated from the residual γ-^33P-ATP using a phosphocellulose membrane (Millipore, Bedfrod, Mass.) and quantitated using a scintillation counter (Packard, Meriden, Conn.).

IC50 (p38 MAP kinase) [µM]	melting point [°C]	Compound
~0.01		Fc1ccc(Oc2ncc3c(-c4ccccc4Cl)n[nH]c3n2)c(F)c1 [Compound 3, 3-(2-Chloro-phenyl)-6-(2,4-difluoro-phenoxy)-1H-pyrazolo[3,4-d]pyrimidine]
	221.3 to 223.1	Clc1ccccc1Oc1ncc2c(-c3cccs3)n[nH]c2n1 [Compound 22, 6-(2-Chloro-phenoxy)-3-thiophen-2-yl-1H-pyrazolo[3,4-d]pyrimidine]

The remaining lines, values behind:

Compound	IC50 (p38 MAP kinase) [µM]	melting point [°C]
COc1ccc(F)c(-c2n[nH]c3nc(Oc4ccc(F)cc4F)ncc23)c1 [Compound 64, 6-(2,4-Difluoro-phenoxy)-3-(2-fluoro-5-methoxy-phenyl)-1H-pyrazolo[3,4-d]pyrimidine]		177.6 to 183.2
COc1ccccc1-c1n[nH]c2cc(Oc3ccc(F)cc3F)cnc12 [Compound 98, 6-(2,4-Difluoro-phenoxy)-3-(2-methoxy-phenyl)-1H-pyrazolo[4,3-b]pyridine]		143.2 to 144.9
FC(F)(F)c1ccccc1Oc1ncc2c(-c3ccccc3Cl)n[nH]c2n1 [Compound 13, 3-(2-Chloro-phenyl)-6-(2-trifluoromethyl-phenoxy)-1H-pyrazolo[3,4-d]pyrimidine]		55.3 to 56.1
